{
  "source": "paper PMC5845353",
  "about": "“The selective cathepsin K inhibitor MIV-711 attenuates joint pathology in experimental animal models of osteoarthritis” (Journal of Translational Medicine, 2018)",
  "key": {"[1]": {"tested_on": "cartilage degradation biomarker CTX-II", "assay": "Urinary CTX-II (cartilage degradation biomarker) in ACLT rabbits", "assay_type": "in vivo, rabbit", "description": "(§1) Starting 1 week after sham operation or ACLT, animals were dosed daily for 7 weeks by oral gavage with either MIV-711 (synthesized by Medivir and given as a suspension in 1% Methocel A4C in water) or vehicle (1% Methocel A4C in water) at a dose volume of 4 mL/kg. The four treatment groups (n = 7 in each group) were: (1) sham + vehicle; (2) ACLT + vehicle; (3) ACLT + MIV-711, 30 µmol/kg (low dose) and (4) ACLT + MIV-711, 100 µmol/kg (high dose).\nUrine was collected in the morning from all animals for biomarker measurements before surgery, before dosing on Day 1, Day 10 and during Week 4 and Week 7. The urine was stored frozen (− 70 to − 80 °C) until analysis.\nIn rabbits, conventional CTX-I assays to assess bone resorption cannot be used due to species differences. Instead, urinary helical peptide (HP-1) concentrations were measured in rabbits using the MicroVue Helical Peptide kit (Ref: 8022) from Quidel (San Diego, CA) according to the instructions supplied by the manufacturer. In dogs, urinary levels of C-terminal telopeptide of collagen type I (CTX-I) were measured using a commercially available kit (Urine BETA CrossLaps ELISA, Ref: AC-05F1, IDS Nordic Bioscience Diagnostics A/S). In rabbits and dogs, urinary concentrations of C-terminal telopeptide of collagen type II (CTX-II) were measured using the Urine CartiLaps EIA kit (Ref: AC-10F1) from Immunodiagnostics Systems (IDS, Herlev, Denmark) according to the instructions supplied by the manufacturer. In dogs, CTX-II levels were also measured in synovial fluid. Before ELISA analysis, 95 µL of synovial fluid was mixed with 5 µL of hyaluronidase (100 U/mL, Sigma, H-3884). The mixture was incubated overnight at 35 °C. The mixture was then used to measure CTX-II levels (Serum Pre-Clinical CartiLaps ELISA, Ref: AC-08F1, IDS Nordic Bioscience Diagnostics A/S). The creatinine levels in urine were determined at Swedish University of Agricultural Sciences (Uppsala, Sweden), using the enzymatic assay (Cat No. 8L24-01) on the Abbott system Architect c4000."}, "[2]": {"tested_on": "rabbits subjected to anterior cruciate ligament transection (ACLT)", "assay": "Rabbit ACLT study, µCT of subchondral bone plate", "assay_type": "in vivo", "description": "The animals were acquired following review and approval by the Institutional Animal Care and Use Committee (IACUC) at Numira (Salt Lake City, UT). The protocol was also reviewed and approved by the IACUC at Ibex Preclinical Research Inc. (Logan, UT). Male, New Zealand White rabbits (n = 32) were purchased from the Western Oregon Rabbit Co. (Philomath, OR). The animals were approximately 9 months old, weighed 3.7–4.5 kg at the start of the experiment and were randomized into four treatment groups based on body weight.\nPre-operative butorphanol (0.5–1.0 mg/kg, i.m.) for analgesia and glycopyrrolate (~ 0.1 mg/kg i.m.) were administered up to 15 min prior to induction. Anesthesia was induced by a mixture of ketamine (20–40 mg/kg, i.m.) and xylazine (5–10 mg/kg, i.m.), followed by placement of an endotracheal tube. General anesthesia was maintained with isoflurane. Perioperative cefazolin (40 mg/kg, i.v.) was administered, and […] (0.2 mg/kg, i.v.) was administered to reverse the effects of xylazine after endotracheal intubation was complete. A fentanyl patch (25 µg/h) was placed on a clipped area of the skin to provide post-operative analgesia. An incision of 1.5–2.5 cm was made in the skin over the medial side of the right knee under aseptic conditions. The patella was dislocated laterally and the knee placed in full flexion. The anterior cruciate ligament (ACL) was visualized and transected with an appropriate blade. In sham animals, the ACL was visualized but not transected. The joint was irrigated with sterile saline and closed. The muscle and skin were closed with suture and/or surgical glue. Butorphanol (0.5–1 mg/kg, i.m.) was administered after extubation to provide supplemental analgesia. The animals were then individually housed in stainless steel or plastic cages.\nas §1\nFemora and tibias from all animals were subjected to µCT scanning without and with contrast reagent, to visualize bone and cartilage, respectively. Samples were scanned on a high-resolution, volumetric µCT scanner (μCT40, ScanCo Medical, Zurich, CH). The image data was acquired with the following parameters: 36 μm isotropic voxel resolution at 300 ms exposure time, 2000 views and 1 frame per view. Each sample was scanned twice, once for acquiring bone data and once for soft tissue data. After the bone scans, the knees were stained using hexabrix for contrast-enhanced imaging of the cartilage. The µCT-generated DICOM files were used to analyze the samples and to create volume renderings of the regions of interest (ROI). The raw data files were converted into a file format compatible with the segmentation software VHLab (Numira). VHLab was used for segmenting out the regions of interest (osteophyte, cartilage, and subchondral bone) for the femur and tibia of each sample. A region spanning 9 mm of the articulating surface of the femur and 6.5 mm of the tibia was selected for segmenting out the cartilage and subchondral bone in the anterior–posterior direction. After the segmentation process, the voxel count associated with each of the regions of interest was calculated using VHLab. The voxel count was then multiplied by the cubic voxel resolution to obtain volume measurements for the different ROI. Cartilage thickness was calculated using SCIRun (Scientific Computing and Imaging Institute, University of Utah). The distance from the bone to the outer surface of the articulating cartilage was calculated. An image was generated that translates the distances into a color map for viewing the thickness along the length of the cartilage. […]"}},
  "note": "Marks after values point to notes of the source that are not given here.",
  "data": [
    {"smiles": "C#C[C@@H]1CN(C(=O)[C@H](CC(C)C)NC(=O)c2ccc(-c3nc(N4CCN(C)CC4)sc3F)cc2)[C@@H]2C(=O)CO[C@H]12", "note": "[MIV-711]", "values": [
      {"measurement": "CTX-II levels decreased by up to, vs ACLT vehicle controls", "setting": "[1]; ACLT rabbits, over doses 30 and 100 µmol/kg and time points", "result": "up to 74%"},
      {"measurement": "urinary CTX-II levels reduced by, vs ACLT rabbits treated with vehicle", "setting": "[1]; after 4 weeks, 30 µmol/kg (p > 0.05)", "result": 38, "unit": "%"},
      {"measurement": "urinary CTX-II levels reduced by, vs ACLT rabbits treated with vehicle", "setting": "[1]; after 4 weeks, 100 µmol/kg", "result": 49, "unit": "%"},
      {"measurement": "urinary CTX-II levels reduced by, vs ACLT rabbits treated with vehicle", "setting": "[1]; after 7 weeks, 30 µmol/kg (p > 0.05)", "result": 14, "unit": "%"},
      {"measurement": "urinary CTX-II levels reduced by, vs ACLT rabbits treated with vehicle", "setting": "[1]; after 7 weeks, 100 µmol/kg", "result": 52, "unit": "%"},
      {"measurement": "urinary CTX-II levels reduced by, vs ACLT rabbits treated with vehicle", "setting": "[1]; after 10 days of dosing, 30 µmol/kg", "result": 53, "unit": "%"},
      {"measurement": "urinary CTX-II levels reduced by, vs ACLT rabbits treated with vehicle", "setting": "[1]; after 10 days of dosing, 100 µmol/kg", "result": 74, "unit": "%"},
      {"measurement": "Subchondral bone plate Thickness, Lateral", "setting": "[2]; Femur, high dose 100 µmol/kg", "result": "321 ± 11", "unit": "µm"},
      {"measurement": "Subchondral bone plate Thickness, Medial", "setting": "[2]; Femur, high dose 100 µmol/kg", "result": "388 ± 9", "unit": "µm"},
      {"measurement": "Subchondral bone plate Thickness, Total", "setting": "[2]; Femur, high dose 100 µmol/kg", "result": "353 ± 8", "unit": "µm"},
      {"measurement": "Subchondral bone plate Volume, Lateral", "setting": "[2]; Femur, high dose 100 µmol/kg", "result": "25.7 ± 1.2* mm^3"},
      {"measurement": "Subchondral bone plate Volume, Medial", "setting": "[2]; Femur, high dose 100 µmol/kg", "result": "29.9 ± 1.0", "unit": "mm^3"},
      {"measurement": "Subchondral bone plate Volume, Total", "setting": "[2]; Femur, high dose 100 µmol/kg", "result": "55.6 ± 2.0* mm^3"},
      {"measurement": "Subchondral bone plate Thickness, Lateral", "setting": "[2]; Femur, low dose 30 µmol/kg", "result": "316 ± 10", "unit": "µm"},
      {"measurement": "Subchondral bone plate Thickness, Medial", "setting": "[2]; Femur, low dose 30 µmol/kg", "result": "380 ± 13", "unit": "µm"},
      {"measurement": "Subchondral bone plate Thickness, Total", "setting": "[2]; Femur, low dose 30 µmol/kg", "result": "347 ± 10", "unit": "µm"},
      {"measurement": "Subchondral bone plate Volume, Lateral", "setting": "[2]; Femur, low dose 30 µmol/kg", "result": "25.0 ± 0.6* mm^3"},
      {"measurement": "Subchondral bone plate Volume, Medial", "setting": "[2]; Femur, low dose 30 µmol/kg", "result": "29.4 ± 0.8", "unit": "mm^3"},
      {"measurement": "Subchondral bone plate Volume, Total", "setting": "[2]; Femur, low dose 30 µmol/kg", "result": "54.4 ± 0.8* mm^3"},
      {"measurement": "Subchondral bone plate Thickness, Lateral", "setting": "[2]; Tibia, high dose 100 µmol/kg", "result": "353 ± 12", "unit": "µm"},
      {"measurement": "Subchondral bone plate Thickness, Medial", "setting": "[2]; Tibia, high dose 100 µmol/kg", "result": "462 ± 13", "unit": "µm"},
      {"measurement": "Subchondral bone plate Thickness, Total", "setting": "[2]; Tibia, high dose 100 µmol/kg", "result": "401 ± 8", "unit": "µm"},
      {"measurement": "Subchondral bone plate Volume, Lateral", "setting": "[2]; Tibia, high dose 100 µmol/kg", "result": "20.7 ± 1.0* mm^3"},
      {"measurement": "Subchondral bone plate Volume, Medial", "setting": "[2]; Tibia, high dose 100 µmol/kg", "result": "20.6 ± 0.5", "unit": "mm^3"},
      {"measurement": "Subchondral bone plate Volume, Total", "setting": "[2]; Tibia, high dose 100 µmol/kg", "result": "41.2 ± 0.9* mm^3"},
      {"measurement": "Subchondral bone plate Thickness, Lateral", "setting": "[2]; Tibia, low dose 30 µmol/kg", "result": "326 ± 18", "unit": "µm"},
      {"measurement": "Subchondral bone plate Thickness, Medial", "setting": "[2]; Tibia, low dose 30 µmol/kg", "result": "452 ± 15", "unit": "µm"},
      {"measurement": "Subchondral bone plate Thickness, Total", "setting": "[2]; Tibia, low dose 30 µmol/kg", "result": "383 ± 15", "unit": "µm"},
      {"measurement": "Subchondral bone plate Volume, Lateral", "setting": "[2]; Tibia, low dose 30 µmol/kg", "result": "18.5 ± 1.3* mm^3"},
      {"measurement": "Subchondral bone plate Volume, Medial", "setting": "[2]; Tibia, low dose 30 µmol/kg", "result": "20.6 ± 0.8", "unit": "mm^3"},
      {"measurement": "Subchondral bone plate Volume, Total", "setting": "[2]; Tibia, low dose 30 µmol/kg", "result": "39.1 ± 2.0* mm^3"},
      {"measurement": "femur subchondral bone plate total thickness, difference vs. sham", "setting": "[2]; low dose 30 µmol/kg", "result": 0, "unit": "%"},
      {"measurement": "tibia subchondral bone plate total thickness, difference vs. sham", "setting": "[2]; low dose 30 µmol/kg", "result": 0, "unit": "%"}
    ]}
  ]
}
